Measured values: patent US20220339179A1, “TREATMENT OF HR DEFICIENT CANCER” (THE FRANCIS CRICK INSTITUTE LIMITED, priority 2019, published 2022)

Experiments:
[1] = test system: eHAP MUS81−/−DNPH1−/− cells; assay: Cell viability assay (CellTiter-Glo), eHAP MUS81−/−DNPH1−/− cells; assay type: cell-based, human; settings: for sensitisation to PARP inhibitor by loss of DNPH1: vs MUS81 k/o cells, continuous treatment 6 days; for sensitivity of MUS81/DNPH1 k/o cells to nucleoside treatment (cell viability): nucleoside 200 nM, vs MUS81 k/o
Procedure: (§1) For analysis of cell viability following exposure to olaparib (Selleckchem), deoxyribonucleosides and DNPH1i (N6-benzyladenosine, Carbosynth), cells were seeded in 96-well plates at a density of 100-500 cells per well. Twenty-four hours post-seeding, drug treatments were initiated, and cells were continuously exposed until termination of the experiment. Cell viability was measured using CellTiter-Glo (Promega). The surviving fractions were measured, and drug sensitivity curves were plotted using GraphPad Prism. The following nucleosides were purchased from commercial sources: dU (2′-deoxyuridine), hdU (5-hydroxy-2′-deoxyuridine), hmdU (5-hydroxymethyl-2′-deoxyuridine), mdC (5-methyl-2′-deoxycytidine), hmdC (5-hydroxymethyl-2′-deoxycytidine), cadC (5-carboxy-2-deoxycytidine), fodC (5-formyl-2-deoxycytidine), dl (2′-deoxyinosine), dX (2′-deoxyxanthosine), 8odG (8-oxo-2′-deoxyguanosine), hmU (5 hydroxymethyluridine), hmC (5-hydroxymethyl-cytidine). fodU (5-formyl-2′-deoxyuridine) was synthesized as previously described (Guo et al Org. Biomol. Chem. 11, 1610-1613 (2013).

[2] = test system: SUM149 BRCA1mut (parental) cells; assay: Cell viability assay, SUM149 BRCA1mut (parental) cells; assay type: cell-based, human; settings: olaparib 250 nM or hmdU 2 μM, 8 days
Procedure: as §1

[3] = test system: eHAP MUS81−/− cells; assay: Cell viability assay (CellTiter-Glo), eHAP MUS81−/− cells; assay type: cell-based, human; settings: for effect on viability, agent alone: single agent
Procedure: as §1

[4] = test system: eHAP WT and MUS81−/− isogenic cells; assay: LD80 dose used in genome-wide CRISPR-Cas9 screen; assay type: cell-based, human; settings: 10 days
Procedure: eHAP WT and MUS81−/− isogenic cells were transduced with a genome-wide lentiviral lentiCRISPRv2 sgRNA library (Doench et al 2016, PMID: 26780180) using multiplicity of infection (MOI) of ˜0.5 with a complexity of 400 cells/sgRNA. Transduced cells were selected with puromycin (0.4 mg/ml), expanded for 7 days, and sub-cultured in the presence or absence of an LD80 dose of olaparib (200 nM) or hmdC (1000 nM) for 10 days. Surviving cells were collected and genomic DNA was extracted using DNeasy Blood & Tissue Kit (Qiagen) supplemented with RNAse (Qiagen) according to the manufacturer's instructions. The CRISPR screens were carried out in biological triplicates. Libraries for Illumina sequencing were generated by two-step PCR amplification. In the first PCR, the sgRNA library was amplified and adaptors were added using nesting primers and the second PCR added barcodes, stagger regions, flow cell attachment and Illumina sequencing primers.
MUS81 k/o cells were transduced with the lentiviral-based Brunello genome-wide gRNA library (J. G. Doench et al Nat. Biotechnol. 34, 184-191 (2016)), followed by treatment with olaparib for 10 days. […] Bioinformatic analysis of the gRNA reads using the MAGeCK algorithm identified several novel, as well as previously reported, factors determining PARPi efficacy (FIG. 1).

[5] = test system: DLD1 BRCA2−/− cells; assay: Cell viability assay, DLD1 BRCA2−/− cells; assay type: cell-based; settings: olaparib 10 nM or hmdU 2 μM, 10 days
Procedure: as §1

[6] = molecular target: T1, recombinant human DNPH1 (Homo sapiens, UniProt O43598); assay: DNPH1 in vitro activity assay (RP-HPLC); assay type: biochemical; settings: for DNPH1 activity towards nucleoside monophosphate substrates: DNPH1 4 μM, substrate 1 mM, 45 min, RP-HPLC
T1 construct: His6 (N); made in house; host or cells: E. coli BL21 (pET28a)
T1 sequence (O43598 1-174): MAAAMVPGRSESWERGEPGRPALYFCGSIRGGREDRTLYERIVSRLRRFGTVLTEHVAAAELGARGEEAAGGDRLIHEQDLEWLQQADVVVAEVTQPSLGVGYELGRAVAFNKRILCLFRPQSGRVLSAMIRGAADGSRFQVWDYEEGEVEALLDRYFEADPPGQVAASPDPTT
Procedure: HIS6DNPH1 and HIS6DNPH1E105Q, cloned in pET28a were transformed into BL21 cells. Transformed cells were inoculated into 2 L of TB media supplemented with 50 μg/ml kanamycin and incubated 37° C. until an OD600=1.0. IPTG (0.5 mM) was added and incubation continued for 4 hours. Cells were harvested by centrifugation and resuspended in lysis buffer (50 mM HEPES pH 7.5, 300 mM NaCl, 5% glycerol, 0.5 mM TCEP) supplemented with protease inhibitors (Complete EDTA-free tablets, Roche). Cells were lysed by passage through an Emulsiflex C5 (Avestin) at […], and the chromatin sheared by sonication at 50% maximum amplitude for 2×30 sec. Soluble proteins were isolated by ultracentrifugation (Beckman Type JLA25.50 rotor) at 60,000×g for 60 min (4° C.). Soluble extract was supplemented with 30 mM imidazole and incubated with 2 ml Ni-NTA beads (GE Healthcare) for 1 hour (4° C.). The beads were washed (50 mM HEPES pH 7.5, 300 mM NaCl, 30 mM imidazole, 5% glycerol, 0.5 mM TCEP) and protein eluted (50 mM HEPES pH7.5, 300 mM NaCl, 200 mM imidazole, 5% glycerol, 0.5 mM TCEP). The eluates were pooled, diluted dropwise to 100 mM NaCl (50 mM HEPES pH 7.5, 5% glycerol, 0.5 mM DTT) and DNPH1 further purified using a 5 ml HiTRAP QHP column (GE Healthcare), followed by a Superdex 200 Increase 10/300 column (GE Healthcare). Peak fractions were separated by SDS-PAGE and visualized with Instant Blue (Gentaur). Peak fractions were frozen in aliquots and stored at −80° C.
DNPH1 (4 μM) was incubated with nucleoside monophosphates (1 mM) in 20 mM sodium phosphate, pH 7.0, 150 mM NaCl, 2 mM MgCl2. After 45 min at room temperature the reaction was quenched by addition of 0.7% perchloric acid followed by immediate neutralization with addition of sodium acetate to 200 mM. Samples were diluted 1:10 into RP-Buffer (100 mM K2HPO4/KH2PO4, pH 6.5, 10 mM tetrabutylammonium bromide, 7% acetonitrile) and the nucleotides and reaction products separated from precipitated protein by filtration through a 0.22 μm centrifugal filter (Durapore-PVDF, Millipore). Samples of each reaction (5 nmol) were applied to a Zorbax SB-C18 column (4.6×250 mm, 3.5 μm, 80A pore size, Agilent Technologies), maintained at 30° C. and mounted on a Jasco HPLC system controlled by Chromnav software (v1.19, Jasco). Nucleoside monophosphates and reaction products were separated under isocratic flow by application of RP-Buffer at 1 mL/min. Absorbance data from the column eluent was continuously monitored between 200-400 nm (2 nm interval) using an MD-2010 photodiode array detector (JASCO). […] Peak integration of the absorbance data recorded at 260 nm was used to quantify the amount of substrate and product. […] The rate was determined by linear regression of a plot of product against reaction time.

[7] = test system: DCTD k/o cell lines; assay: Cell viability, DCTD k/o cell lines; assay type: cell-based
Procedure: as §1

Row | SMILES | sensitisation to PARP inhibitor by loss of DNPH1 [1] | effect on viability, agent alone [3] | DNPH1 activity towards nucleoside monophosphate substrates [6] | further results
1 | O=C(c1cc(Cc2n[nH]c(=O)c3ccccc23)ccc1F)N1CCN(C(=O)C2CC2)CC1 [olaparib, 1-(Cyclopropylcarbonyl)-4-[5-[(3,4-dihydro-4-oxo-1-phthalazinyl)methyl]-2-fluorobenzoyl]piperazine] | sensitized | limited effect on viability |  | effect on viability, agent alone [2]: limited effect on viability; LD80 dose [4]: 200 nM; effect on viability, agent alone [5]: limited effect on viability
2 | Cn1ncnc1[C@H]1c2n[nH]c(=O)c3cc(F)cc(c23)N[C@@H]1c1ccc(F)cc1 [talazoparib, (8S,9R)-5-Fluoro-8-(4-fluorophenyl)-9-(1-methyl-1H-1,2,4-triazol-5-yl)-2,7,8,9-tetrahydro-3H-pyrido[4,3,2-de]phthalazin-3-one] | sensitised | limited effect on viability |  | 
3 | OC[C@H]1O[C@@H](n2cnc3c(NCc4ccccc4)ncnc32)[C@H](O)[C@@H]1O [DNPH1i, N6-benzyladenosine] |  | no effect on viability |  | effect of DNPH1i on viability (specificity control) ([1]; with hmdU, 6 days, DNPH1 k/o cells): only a marginal effect; effect of DNPH1i on viability (specificity control) ([3]; with hmdU, 6 days, cells with DNPH1 (text: wild-type)): dose-dependent decrease in viability
4 | C[C@]1(c2nc3c(C(N)=O)cccc3[nH]2)CCCN1 [veliparib, 2-[(2R)-2-Methyl-2-pyrrolidinyl]-1H-benzimidazole-4-carboxamide] | sensitised | limited effect on viability |  | 
5 | O=c1ccn([C@H]2C[C@H](O)[C@@H](COP(=O)(O)O)O2)c(=O)[nH]1 [dUMP] |  |  | Little or no activity | 
6 | O=c1ccn([C@@H]2O[C@H](COP(=O)(O)O)[C@@H](O)[C@H]2O)c(=O)[nH]1 [UMP] |  |  | Little or no activity | 
7 | O=c1[nH]c(=O)n([C@H]2C[C@H](O)C(COP(=O)(O)O)O2)cc1CO (some centres unmarked) [hmdUMP] |  |  | efficiently hydrolyzed | reaction rate of hmdUMP hydrolysis by DNPH1 ([6]; DNPH1 (2 μM), samples quenched at intervals up to 20 minutes, linear regression): 14.6 ± 0.4 µM/min
8 | Nc1nc(=O)n([C@H]2C[C@H](O)[C@@H](CO)O2)cc1CO [hmdC, 5-hydroxymethyl-2′-deoxycytidine] |  |  |  | sensitivity of MUS81/DNPH1 k/o cells to nucleoside treatment (cell viability) ([1]; 6 days): to a lesser extent; LD80 dose [4]: 1000 nM; resistance of DCTD k/o cells to nucleoside treatment [7]: completely resistant
9 | O=Cc1cn([C@H]2C[C@H](O)[C@@H](CO)O2)c(=O)[nH]c1=O [fodU, 5-formyl-2′-deoxyuridine] |  |  |  | sensitivity of MUS81/DNPH1 k/o cells to nucleoside treatment (cell viability) ([1]; 6 days): to a lesser extent
